Results on 18 compounds are retold here after patent publication US6977254B2, “Hydroxy cyclohexenyl phenyl carboxamides tocolytic oxytocin receptor antagonists” (Wyeth, priority 2001, dated 2005).

One data set deals with T1, human V2 vasopressin receptor subtype (Homo sapiens, UniProt P30518).
T1 construct: host or cells: CHO cells, stably transfected (pZeoSV vector); membranes
T1 sequence (P30518 whole entry): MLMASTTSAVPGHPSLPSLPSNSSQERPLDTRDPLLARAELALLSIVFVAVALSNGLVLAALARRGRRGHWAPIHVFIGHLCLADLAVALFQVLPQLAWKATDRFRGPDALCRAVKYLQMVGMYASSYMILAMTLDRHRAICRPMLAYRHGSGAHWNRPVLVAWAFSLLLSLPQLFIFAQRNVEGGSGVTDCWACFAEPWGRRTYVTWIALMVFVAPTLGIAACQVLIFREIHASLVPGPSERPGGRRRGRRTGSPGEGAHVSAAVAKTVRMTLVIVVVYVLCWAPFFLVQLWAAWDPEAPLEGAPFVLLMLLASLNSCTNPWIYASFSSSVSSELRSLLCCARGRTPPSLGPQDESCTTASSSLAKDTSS
Description: Vasopressin binding in CHO cell membranes expressing human vasopressin V2 subtype receptors ([3H]arginine vasopressin). Particulars: 100 nM, value without parentheses. The text has this:
Vasopressin Binding in Chinese Hamster Ovary Cell Membranes Expressing Human Vasopressin V2 Subtype Receptors
Chinese Hamster Ovary (CHO) cells stably transfected with the human V2 subtype receptors were obtained from M. Thibonnier, Case Western Reserve University School of Medicine, Cleveland, Ohio.
A. Passaging and Amplification of Cells:
CHO cells transfected with the human vasopressin V2 subtype receptors obtained from M. Thibonnier (pZeoSV vector) are allowed to grow to confluency (approx. >90%) in T-150 flasks under sterile conditions, in a cell culture medium of F-12 Nutrient Mixture (HAM) with L-glutamine (Gibco Cat. #11765-054) containing 15 mM HEPES (Gibco Cat. #15630-080), 1% antibiotic/antimycotic (add 5 mL 100×, Gibco Cat. #15240-062 per 500 mL F-12), 250 μg/mL Zeocin (add 1.25 mL of 100 mg/mL Invitrogen R-250-01 per 500 mL F-12) and 10% Fetal Bovine Serum (Qualified, heat inactivated, Gibco Cat. #16140-063). The medium is removed by aspiration and the cells washed with 10 mL of Hank's Balanced Salt solution (Gibco Cat. #14175-095). The salt solution is removed by aspiration and the cells trypsinized with 5 mL of trypsin-EDTA (0.05% trypsin, 0.53 mM EDTA-4Na, Gibco Cat. #25300-070) for 1 min. The trypsin is removed by aspiration and the cells dislodged by tapping. Cell Culture medium (e.g. 30 mL for 1:30 split) is immediately added and mixed well to inactivate trypsin. 1 mL of detached cells is added to new culture flasks containing fresh Cell Culture medium (e.g. into 25 mL per T-150 flask), and mixed gently. The cells are incubated at 37° C. in 5% CO2. The medium is changed at 3 to 4 day interval (or as appropriate). The cells grow to confluency (approx. >75%-95%) within 7-8 days. All steps are done under sterile conditions.
The cells are washed twice gently with Hank's Balanced Salt solution (e.g. use 10 mL per T-150 flask). The excess solution is removed and the cells bathed for 15-30 min. in an enzyme-free Cell Dissociation Buffer (e.g. use 8 mL Hank's Based, Gibco Cat. #13150-016 per T-150 flask) until cells are loosened. The contents are transferred to centrifuge tubes (50 mL size) kept in ice bath. All subsequent steps are done at 4° C. The tubes are centrifuged at 300×g for 15 min (1380 rpm on SORVAL, Model RT6000D, using rotor for 50 mL tubes). The supernatant is discarded and the cells suspended in homogeneizing buffer(10 mM Tris-HCl containing 0.25 M sucrose and 1 mM EDTA, pH 7.4) ensuring that the volume of the buffer is about ten times the volume of the cell pellet. The cells are pooled into a centrifuge tube (50 mL) and homogenized with Polytron at setting 6 for 10 sec. The homogenate is transferred into a Potter-Elvjehm homogeneizer and homogenized with 3 strokes. The homogenate is centrifuged at 1500×g for 60 min at 4° C. (3100 rpm using SORVAL, model RT6000D, using rotor for 50 mL tubes). The pellet is discarded. The supernatant is centrifuged at 100,000×g for 60 min. at 4° C. (Beckman L8-80M ultracentrifuge; spin at 37,500 rpm with rotor type 70 Ti for 50 mL tubes; 38,000 rpm with type 80Ti for 15 mL tubes; or 35,800 rpm with rotor type 45Ti). The supernantant is discarded and the pellet suspended in 3 to 4 mL of Tris buffer (50 mM TRIS-HCl, pH 7.4). The protein content is estimated by the Bradford or Lowry method. The volume of the membrane suspension is adjusted with the membrane buffer (50 mM Tris-HCl containing 0.1% BSA and 0.1 mM PMSF) to give 3.0 mg/mL (or as appropriate) of protein. The membranes are aliquoted and stored at −70° C.
C. Radioligand Binding Assay:
In wells of a 96-well format microtiter plate, is added 90, 110 or 130 μL (to make up a final volume of 200 μL) of assay buffer containing 50 mM of Tris-HCl (pH 7.4), […], 1 mg % aprotinin, 1 mg % leupeptin, 2 mg % 1,10-phenanthroline, 10 mg % trypsin inhibitor, and 0.1 mM PMSF. The inhibitors are added on the day of the experiment. […]
As to `COc1cc(C2=CCCCC2)c(Cl)cc1C(=O)N1Cc2ccc(C(=O)O)n2Cc2ccccc21` [Example 1G, 10-(5-Chloro-4-cyclohex-1-en-1-yl-2-methoxybenzoyl)-10,11-dihydro-5H-pyrrolo[2,1-c][1,4]benzodiazepine-3-carboxylic acid], the inhibition at 0.1 µM worked out at 4%. Take `Cc1cc(C(=O)N2Cc3ccc(C(=O)C(Cl)(Cl)Cl)n3Cc3ccccc32)ccc1C1=CCCCC1` [Example 5D, 2,2,2-Trichloro-1-[10-(4-cyclohex-1-en-1-yl-3-methyl-benzoyl)-10,11-dihydro-5H-pyrrolo[2,1-c][1,4]benzodiazepin-3-yl]-methanone]: the “V2 % inhibition @ 100 nM” value worked out at 1%. On to `Cc1cc(C(=O)N2Cc3ccc(C(=O)O)n3Cc3ccccc32)ccc1C1=CCCCC1` [Example 5E, 10-(4-Cyclohex-1-en-1-yl-3-methyl-benzoyl)-10,11-dihydro-5H-pyrrolo[2,1-c][1,4]benzodiazepine-3-carboxylic acid], for which the inhibition at 0.1 µM was found to be 15%. For the compound `CCOC(=O)[C@H](Cc1ccc(O)cc1)NC(=O)c1ccc2n1Cc1ccccc1N(C(=O)c1ccc(C3=CCCCC3)c(C)c1)C2` [Example 9, (2S)-2-{[10-(4-Cyclohex-1-en-1-yl-3-methyl-benzoyl)-10,11-dihydro-5H-pyrrolo[2,1-c][1,4]benzodiazepine-3-carbonyl]-amino}-3-(4-hydroxy-phenyl)-propionic acid ethyl ester], the inhibition at 0.1 µM is 11%. As for `Cc1cc(C(=O)N2Cc3ccc(C(=O)N[C@@H](Cc4ccc(O)cc4)C(=O)O)n3Cc3ccccc32)ccc1C1=CCCCC1` [Example 10], the “V2 % inhibition @ 100 nM” value was 15%.

As for `COC(=O)[C@H](CO)NC(=O)c1ccc2n1Cc1ccccc1N(C(=O)c1ccc(C3=CCCCC3)c(C)c1)C2` [Example 11, (2S)-2-{[10-(4-Cyclohex-1-en-1-yl-3-methyl-benzoyl)-10,11-dihydro-5H-pyrrolo[2,1-c][1,4]benzodiazepine-3-carbonyl]-amino}-3-hydroxy-propionic acid methyl ester], the inhibition at 0.1 µM stood at 10%. On to `COC(=O)[C@@H](CO)NC(=O)c1ccc2n1Cc1ccccc1N(C(=O)c1ccc(C3=CCCCC3)c(C)c1)C2` [Example 12, (2R)-2-{[10-(4-Cyclohex-1-en-1-yl-3-methyl-benzoyl)-10,11-dihydro-5H-pyrrolo[2,1-c][1,4]benzodiazepine-3-carbonyl]-amino}-3-hydroxy-propionic acid methyl ester], for which the inhibition at 0.1 µM was determined as 9%. On the same count and under the same terms, the value for `Cc1cc(C(=O)N2Cc3ccc(C(=O)N[C@@H](CO)C(=O)O)n3Cc3ccccc32)ccc1C1=CCCCC1` [Example 13, (2S)-2-{[10-(4-Cyclohex-1-en-1-yl-3-methyl-benzoyl)-10,11-dihydro-5H-pyrrolo[2,1-c][1,4]benzodiazepine-3-carbonyl]-amino}-3-hydroxy-propionic acid] was 9%. The same measure, in the same setting: the value for `Cc1cc(C(=O)N2Cc3ccc(C(=O)N[C@H](CO)C(=O)O)n3Cc3ccccc32)ccc1C1=CCCCC1` [Example 14, (2R)-2-{[10-(4-Cyclohex-1-en-1-yl-3-methyl-benzoyl)-10,11-dihydro-5H-pyrrolo[2,1-c][1,4]benzodiazepine-3-carbonyl]-amino}-3-hydroxy-propionic acid] was 11%. The same measure, in the same setting: the same measure for `Cc1cc(C(=O)N2Cc3ccc(C(=O)O)n3Cc3ccccc32)ccc1C1=CCCc2ccccc21` [Example 15B, 10-[4-(3,4-Dihydro-naphthalen-1-yl)-3-methyl-benzoyl]-10,11-dihydro-5H-pyrrolo[2,1-c][1,4]benzodiazepine-3-carboxylic acid]: 40%. As for `Cc1cc(C(=O)N2Cc3ccc(C(=O)N(CCO)CCO)n3Cc3ccccc32)ccc1C1=CCCc2ccccc21` [Example 16, {10-[4-(3,4-Dihydro-naphthalen-1-yl)-3-methyl-benzoyl]-10,11-dihydro-5H-pyrrolo[2,1-c][1,4]benzodiazepin-3-yl}-3-carboxylic acid bis-(2-hydroxy-ethyl)-amide], the “V2 % inhibition @ 100 nM” value came out at 46%. Still for that read-out and setting: the same measure for `Cc1cc(C(=O)N2Cc3ccc(C(=O)N4CCN(CCO)CC4)n3Cc3ccccc32)ccc1C1=CCCCC1` [Example 17, {10-[4-(1-Cyclohex-1-en-1-yl)-3-methylbenzoyl]-10,11-dihydro-5H-pyrrolo[2,1-c][1,4]benzodiazepin-3-yl}[4-(2-hydroxyethyl)-1-piperazinyl]methanone]: 7%.

Still in this data set, the particulars now being: value in parentheses.
With `COc1cc(C2=CCCCC2)c(Cl)cc1C(=O)N1Cc2ccc(C(=O)N(C)C[C@H](O)[C@@H](O)[C@H](O)[C@H](O)CO)n2Cc2ccccc21` [Example 1, 1-[[[10-[5-Chloro-4-(1-cyclohex-1-en-1-yl)-2-methoxybenzoyl]-10,11-dihydro-5H-pyrrolo[2,1-c][1,4]benzodiazepin-3-yl]carbonyl]methylamino]-1-deoxy-D-glucitol], the half-maximal inhibitory concentration (IC50) amounted to 1560 nM. On to `COC[C@@H](OC)[C@@H](OC)[C@H](OC)[C@H](CN(C)C(=O)c1ccc2n1Cc1ccccc1N(C(=O)c1cc(Cl)c(C3=CCCCC3)cc1OC)C2)OC` [Example 2, 10-(5-Chloro-4-cyclohex-1-en-1-yl-2-methoxybenzoyl)-N-methyl-N-[(2S,3R,4R,5R)-2,3,4,5,6-pentamethoxyhexyl]-10,11-dihydro-5H-pyrrolo[2,1-c][1,4]benzodiazepine-3-carboxamide], for which the IC50 was found to be 4590 nM. For `COc1cc(C2=CCCCC2)c(Cl)cc1C(=O)N1Cc2ccc(C(=O)N(C)C[C@@H]3OC(=O)O[C@H]3[C@H](O)[C@H]3COC(=O)O3)n2Cc2ccccc21` [Example 3, 10-(5-Chloro-4-cyclohex-1-en-1-yl-2-methoxybenzoyl)-N-[((4S,5S)-5-{(R)-hydroxy[(4R)-2-oxo-1,3-dioxolan-4-yl]methyl}-2-oxo-1,3-dioxolan-4-yl)methyl]-N-methyl-10,11-dihydro-5H-pyrrolo[2,1-c][1,4]benzodiazepine-3-carboxamide], the IC50 amounted to 2620 nM. `COc1cc(C2=CCCCC2)c(Cl)cc1C(=O)N1Cc2ccc(C(=O)N(C)CC(O)CO)n2Cc2ccccc21` (stereo not drawn) [Example 4, 10-(5-Chloro-4-cyclohex-1-en-1-yl-2-methoxybenzoyl)-N-(2,3-dihydroxypropyl)-N-methyl-10,11-dihydro-5H-pyrrolo[2,1-c][1,4]benzodiazepine-3-carboxamide]: the IC50 turned out to be 1490 nM. Turning to `Cc1cc(C(=O)N2Cc3ccc(C(=O)N(C)C[C@H](O)[C@@H](O)[C@H](O)[C@H](O)CO)n3Cc3ccccc32)ccc1C1=CCCCC1` [Example 5], the concentration for half-maximal inhibition (IC50) was determined as 2110 nM. On the same count and under the same terms, the same measure for `Cc1cc(C(=O)N2Cc3ccc(C(=O)N(C)C[C@H](O)[C@@H](O)[C@H](O)[C@H](O)CO)n3Cc3ccccc32)ccc1C1=CCCc2ccccc21` [Example 15]: 121 nM.

Tested on in the next data set: not given
Assay: not given
Conditions: not given
As to `COc1cc(C2=CCCCC2)c(Cl)cc1C(=O)N1Cc2ccc(C(=O)N(C)C[C@H](O)[C@@H](O)[C@H](O)[C@H](O)CO)n2Cc2ccccc21` [Example 1, 1-[[[10-[5-Chloro-4-(1-cyclohex-1-en-1-yl)-2-methoxybenzoyl]-10,11-dihydro-5H-pyrrolo[2,1-c][1,4]benzodiazepin-3-yl]carbonyl]methylamino]-1-deoxy-D-glucitol], the melting point fell in the range of 72 to 73 °C.

`COc1cc(C2=CCCCC2)c(Cl)cc1C(=O)N1Cc2ccc(C(=O)N(C)C[C@@H]3OC(=O)O[C@H]3[C@H](O)[C@H]3COC(=O)O3)n2Cc2ccccc21` [Example 3, 10-(5-Chloro-4-cyclohex-1-en-1-yl-2-methoxybenzoyl)-N-[((4S,5S)-5-{(R)-hydroxy[(4R)-2-oxo-1,3-dioxolan-4-yl]methyl}-2-oxo-1,3-dioxolan-4-yl)methyl]-N-methyl-10,11-dihydro-5H-pyrrolo[2,1-c][1,4]benzodiazepine-3-carboxamide] had a melting point of 163 to 176 °C. For `COc1cc(C2=CCCCC2)c(Cl)cc1C(=O)N1Cc2ccc(C(=O)N(C)CC(O)CO)n2Cc2ccccc21` (stereo not drawn) [Example 4, 10-(5-Chloro-4-cyclohex-1-en-1-yl-2-methoxybenzoyl)-N-(2,3-dihydroxypropyl)-N-methyl-10,11-dihydro-5H-pyrrolo[2,1-c][1,4]benzodiazepine-3-carboxamide], the melting point is 155 to 157 °C.

Usually inhibition stands for the share of the control response that was lost under treatment. As usually defined, the IC50 is the concentration that gives 50% inhibition. A word on the melting point: it is the temperature of the solid-liquid transition.
